Key:
mouse RBCs = experiment: cAMP levels in isolated mouse RBCs; format: cell-based
Experimental: Isolation of total erythrocytes and treatment of human and mouse erythrocytes in vitro. Blood collected with heparin as an anti-coagulant was centrifuged at 240×g for 10 min at room temperature, followed by aspiration of plasma and white interface. […] After 18 hours, cells were collected and 2,3-DPG levels were measured as described below. RBCs were purified from SCD patients and treated with or without 10 μM NECA, 5 units/ml polyethylene glycol-adenosine deaminase (PEG-ADA) or 3 mmol/L glycolic acid (Sigma-Aldrich), 10 μM MRS1754 (A2BR antagonist) under ambient oxygen (normoxia) or different levels of hypoxic conditions (for 3 hours with shaking at 37° C. At the end of experiments, 2,3-DPG levels were measured and the percentage of sickled cells determined as described below.
cAMP measurement. Quantitative assays for cAMP contents in RBCs were performed by using a commercial enzyme immunoassay kit (Assay Designs Inc., Michigan, USA).

normal mouse RBCs = experiment: 2,3-DPG levels in isolated mouse RBCs treated in vitro; format: cell-based; conditions: for NECA-mediated 2,3-DPG induction (effect of inhibitor): normal mouse RBCs
Experimental: (§1) Isolation of total erythrocytes and treatment of human and mouse erythrocytes in vitro. Blood collected with heparin as an anti-coagulant was centrifuged at 240×g for 10 min at room temperature, followed by aspiration of plasma and white interface. Packed red blood cells (RBCs) were washed 3 times with culture media (F-10 Ham's with 1% penicillin/streptomycin, 10% fetal bovine serum (FBS), and re-suspended to 4% hematocrit (HCT). One ml of RBCs was added to each well of a 12-well plate. Normal RBCs purified from humans were treated with different concentrations of 5′-(N-ethyl-carboxamido) adenosine (NECA, an adenosine receptor agonist, Sigma-Aldrich, St. Louis, Mo.) ranging from 1-50 μM for different time points (from 1 to 18 hr) under normoxic conditions. Normal RBCs were treated with 10 μM NECA in the presence or absence of adenosine receptor antagonists, including theophylline, PSB36, SCH442416, MRS1754 and MRS3777 (Tocris Bioscience, St. Louis, Mo.) at 10 μM. In addition, normal RBCs were treated directly with the A2BR agonist (BAY 60-6583, Bayer HealthCare AG, Wuppertal, Germany) or the A2AR agonist (CGS21680) (Tocris). Similarly, the mouse RBCs were treated with or without NECA at 10 μM in the presence or absence of theophylline (10 μM). In addition, RBCs purified from 4 adenosine receptor deficient mice were treated with 10 μM NECA. After 18 hours, cells were collected and 2,3-DPG levels were measured as described below. RBCs were purified from SCD patients and treated with or without 10 μM NECA, 5 units/ml polyethylene glycol-adenosine deaminase (PEG-ADA) or 3 mmol/L glycolic acid (Sigma-Aldrich), 10 μM MRS1754 (A2BR antagonist) under ambient oxygen (normoxia) or different levels of hypoxic conditions (for 3 hours with shaking at 37° C. At the end of experiments, 2,3-DPG levels were measured and the percentage of sickled cells determined as described below.
(§2) 2,3-DPG analysis. 2,3-DPG concentration in RBCs was detected by a commercially available kit (Roche, Nutley, N.J., and as described in Ericson A, de Verdier C H. A modified method for the determination of 2,3-diphosphoglycerate in erythrocytes. Scandinavian journal of clinical and laboratory investigation. 1972; 29(1):84-90).

RBCs from SCD patients [1] = experiment: Hypoxia-induced 2,3-DPG in erythrocytes purified from SCD patients; format: cell-based, human; conditions: hypoxic conditions (2% oxygen)
Experimental: as §1, §2

normal human RBCs = experiment: 2,3-DPG levels in primary cultured normal human RBCs; format: cell-based; conditions: for 2,3-DPG levels / production (agonist): primary cultured human RBCs from normal individuals, normoxic; for NECA-mediated 2,3-DPG induction (effect of antagonist): RBCs from normal individuals, 10 μM NECA, antagonists at 10 μM
Experimental: as §1, §2

RBCs from SCD patients [2] = experiment: Hypoxia-induced sickling of RBCs from SCD patients; format: cell-based, human; conditions: RBCs from individuals with SCD, hypoxic conditions
Experimental: as §1
(§3) Morphological study of erythrocytes and quantification of reticulocytes by flow cytometry. Blood smears were stained using the WG16-500 ml kit (Sigma-Aldrich) for sickled cells and observed using 100× oil immersion objective of Olympus BX60 microscope. […] The percentages of sickled cells among the counted cells were calculated. Reticulocyte was labeled by Retic-COUNT Reagent (Becton Dickinson) and quantified by flow cytometry (Perumbeti, et al., A novel human gamma-globin gene vector for genetic correction of sickle cell anemia in a humanized sickle mouse model: critical determinants for successful correction. Blood. 2009; 114(6):1174-1185).

SCD Tg mice [3] = experiment: Hematological parameters of SCD Tg mice treated with PEG-ADA or PSB1115 for 8 weeks; format: in vivo, mouse; conditions: 8 weeks treatment
Excerpt: Mice. Berkley sickle cell disease transgenic mice (SCD Tg mice), expressing exclusively human sickle hemoglobin (HbS) were purchased from The Jackson Laboratory Inc (Paszty, C. Transgenic and gene knock-out mouse models of sickle cell anemia and the thalassemias. Curr Opin Hematol 4, 88-93, 1997). C57BL/6 mice used as controls were purchased from Harlan Laboratories. Adenosine receptor deficient mice were obtained from the following sources: A1R-deficient mice (Jurgen Schnermann, NIDDK, NIH); A2AR-deficient mice (Jiang-Fan Chen, Boston University School of Medicine); A2BR-deficient mice (Michael R. Blackburn, University of Texas-Houston Medical School); and A3R-deficient mice (Marlene Jacobson, Merck Research Laboratories). All receptor deficient mice were backcrossed at least 10 generations onto the C57Blk/6J background and were genotyped according to established protocols (Sun, D., et al. Mediation of tubuloglomerular feedback by adenosine: evidence from mice lacking adenosine receptors. Proc Natl Acad Sci USA 98, 9983-9988, 2001; Nemeth, Z. H., et al. Adenosine receptor activation ameliorates type 1 diabetes. FASEB J, 2007; Chen, J. F., et al. A2A adenosine receptor deficiency attenuates brain injury induced by transient focal ischemia in mice. J Neurosci 19, 9192-9200, 1999; Salvatore, C. A., et al. Disruption of the A3 adenosine receptor gene in mice and its effect on stimulated inflammatory cells. The Journal of Biological Chemistry 275, 4429-4434, 2000). Animals were maintained in accordance with institutional and NIH guidelines under research protocols that were reviewed and approved by the University of Texas Health Science Center at Houston Animal Welfare Committee.
(§4) Chronic PEG-ADA therapy. SCD transgenic mice, at eight weeks of age, were divided to two groups. One group was injected with 2.5 U PEG-ADA weekly for 8 weeks. This dosing protocol was designated SCD with PEG-ADA treatment regimen (SCD+PEG-ADA). Another group was injected with normal saline for 8 weeks; it was designated as SCD without PEG-ADA treatment regimen (SCD). Wild-type mice (C57Bl/6) used as control were injected with saline or PEG-ADA as with the SCD groups.
(§5) Chronic treatment with A2BR antagonist, PSB1115. SCD transgenic mice or wild type mice (eight weeks of age) were divided to two groups, one groups was injected with 200 μg of PSB1115 (an A2B receptor antagonist: obtained from Tocris Bioscience, St. Louis, Mo.) in PBS, daily for 8 weeks. One of groups was injected with saline.
as §3

SCD Tg mice [4] = experiment: 2,3-DPG in RBCs and saturated Hb in SCD Tg mice after chronic treatment; format: in vivo, mouse; conditions: steady state, 8 weeks treatment
Experimental: as §4, §5, §2
Measurement of percentage of saturated Hb in mice. Percentage of saturated Hb (SpO2) in mice was measured by Oxysat (Kent Scientific Corp, CT). Mice were held in mouse holders (Kent Scientific Corp, CT) and Oxysat sensor was placed on a site approximately 1 cm from the base of the tail. When mouse was calm, the SpO2 was continuously recorded for about 2 minutes. The data were collected and SpO2 was calculated by average of SpO2 in two-minute measurement.

SCD Tg mice [5] = experiment: Organ weight, histology and heme content in SCD Tg mice after chronic treatment; format: in vivo, mouse; conditions: 8 weeks treatment, lung, liver, spleen (PSB1115 also kidney)
Experimental: as §4, §5
Mouse organ isolation and histological analysis. Mice were anesthetized and body weight was determined. Organs were isolated and weighed. Half of each organ was quickly frozen in liquid nitrogen and then stored at −80° C. for heme content measurements as described below. The remaining half of each organ was fixed with 4% paraformaldehyde in PBS overnight at 4° C. Fixed tissues were rinsed in PBS, dehydrated through graded ethanol washes, and embedded in paraffin. 5 μm sections were collected on slides and stained with haematoxylin and eosin (H&E). Semiquantification of histological changes was analyzed by Image-Plus, Pro software.
Heme content measurement in multiple mouse tissues. Different organs were quickly removed and frozen in liquid nitrogen as described above. Heme was extracted from organs by homogenization with 1% Triton x-100 in PBS with 1× proteinase inhibitors (Roche) and the supernatant was collected following centrifugation at 20,000 g for 10 minutes at 4° C. Heme content was quantified following the instructions of QuantiChrom Heme Assay Kit (BioAssay Systems, Hayword, Calif.).

SCD Tg mice [6] = experiment: Life span of RBCs in SCD Tg mice (in vivo biotin labelling); design: species or system mouse
Experimental: Measurement of life span of RBCs in SCD Tg mice. SCD Tg mice were treated with or without PEG ? ADA (2.5 unit/week) for 8 weeks. At 6 week-treatment, RBCs were labeled in vivo by using N-hydroxysuccinimide (NHS) biotin and the life span of circulating red blood cells was measured as described (Perumbeti, et al. A novel human gamma-globin gene vector for genetic correction of sickle cell anemia in a humanized sickle mouse model: critical determinants for successful correction. Blood. 2009; 114(6):1174-1185).
Specifically, 50 mg/kg of NHS biotin was injected into the retro-orbital plexus of SCD Tg mice (prepared in 100 μl sterile saline just prior to injection; initially dissolved at 50 mg/ml in N,—N,-dimethylacetamide) Blood samples (only 5 μl) were collected after first day of biotin-injection from tail vein by venipuncture to determine the percentage of RBCs labeled with biotin. Subsequently, 5 μl of blood were obtained by tail vein every 3 days for measurement of biotinylated RBCs until the 10th day. The percentage of biotinylated RBCs was calculated by determining the fraction of peripheral blood cells labeled with Ter-119 (to identify RBCs) that were also labeled with a streptavidin-conjugated fluorochrome by flow cytometry.

SMILES: CCNC(=O)[C@H]1O[C@@H](n2cnc3c(N)ncnc32)[C@H](O)[C@@H]1O [NECA, 5′-N-ethylcarboxamidoadenosine]
- cAMP production (mouse RBCs; RBCs from A2BR-deficient mice): not
- cAMP production (mouse RBCs; RBCs from WT mice): capable of inducing cAMP production
- NECA-mediated 2,3-DPG induction (normal mouse RBCs; RBCs from A2BR-deficient mice): did not occur
- 2,3-DPG levels (normal mouse RBCs; primary normal mouse mature erythrocytes, NECA 10 μM, 18 hours): stimulated an increase
- hypoxia-mediated induction of 2,3-DPG (RBCs from SCD patients [1]): significantly stimulated a further increase
- 2,3-DPG levels / production (agonist) (normal human RBCs): stimulated 2,3-DPG levels in a dosage and time-dependent manner
- percentage of sickled cells (RBCs from SCD patients [2]): significantly increased

SMILES: c1ccc(Oc2nc(NC3CCCCC3)c3[nH]cnc3n2)cc1 [MRS3777]
- NECA-mediated 2,3-DPG induction (effect of antagonist) (normal human RBCs): not

SMILES: CCCn1c(=O)c2[nH]c(-c3ccc(OCC(=O)Nc4ccc(C#N)cc4)cc3)nc2n(CCC)c1=O [MRS1754]
- hypoxia-mediated induction of 2,3-DPG (RBCs from SCD patients [1]): reduced
- NECA-mediated 2,3-DPG induction (effect of antagonist) (normal human RBCs): inhibited
- percentage of sickled cells (RBCs from SCD patients [2]): significantly reduced

SMILES: CCCCn1c(=O)c2[nH]c(C34CC5CC(CC3C5)C4)nc2n(CCCO)c1=O [PSB36]
- NECA-mediated 2,3-DPG induction (effect of antagonist) (normal human RBCs): not

SMILES: Cn1c(=O)c2[nH]cnc2n(C)c1=O [theophylline]
- NECA-mediated 2,3-DPG induction (effect of inhibitor) (normal mouse RBCs; NECA 10 μM): prevented
- NECA-mediated 2,3-DPG induction (effect of antagonist) (normal human RBCs): inhibited

SMILES: CCNC(=O)[C@H]1O[C@@H](n2cnc3c(N)nc(NCCc4ccc(CCC(=O)O)cc4)nc32)[C@H](O)[C@@H]1O [CGS21680]
- 2,3-DPG levels / production (agonist) (normal human RBCs): not

SMILES: O=C(O)CO [glycolate, glycolic acid]
- hypoxia-mediated induction of 2,3-DPG (RBCs from SCD patients [1]): reduced
- percentage of sickled cells (RBCs from SCD patients [2]): significantly reduced

SMILES: O=S(=O)(NCCNC/C=C/c1ccc(Br)cc1)c1cccc2cnccc12 [H-89]
- NECA-mediated 2,3-DPG induction (effect of inhibitor) (normal mouse RBCs; NECA 10 μM): significantly inhibited
- hypoxia-mediated induction of 2,3-DPG (RBCs from SCD patients [1]): reduced
- percentage of sickled cells (RBCs from SCD patients [2]): significantly reduced

SMILES: COc1ccc(CCCn2ncc3c2nc(N)n2nc(-c4ccco4)nc32)cc1 [SCH442416]
- NECA-mediated 2,3-DPG induction (effect of antagonist) (normal human RBCs): not

SMILES: N#Cc1c(N)nc(SCC(N)=O)c(C#N)c1-c1ccc(OCC2CC2)cc1 [BAY 60-6583]
- 2,3-DPG levels / production (agonist) (normal human RBCs): induced 2,3-DPG production in a dosage-dependent manner

SMILES: CCCn1c(=O)[nH]c2nc(-c3ccc(S(=O)(=O)O)cc3)[nH]c2c1=O [PSB1115, reference compound]
- HCT (SCD Tg mice [3]): 31.82 ± 3.43 %
- Hb (SCD Tg mice [3]): 8.25 ± 0.29 g/dL
- MCH (SCD Tg mice [3]): 12.78 ± 0.46 pg
- MCHC (SCD Tg mice [3]): 26.02 ± 1.82 g/dL
- MCV (SCD Tg mice [3]): 49.17 ± 1.82 fL
- RDW (SCD Tg mice [3]): 28.27 ± 1.36 %
- Reticulocyte (SCD Tg mice [3]): 37.15 ± 3.27 %
- Sickle cell (SCD Tg mice [3]): 9.07 ± 0.75 %
- WBC (SCD Tg mice [3]): 11.95 ± 3.27 k/μl
- RBC (SCD Tg mice [3]; mean ± SEM): 6.45 ± 0.45 M/μl
- 2,3-DPG levels in the RBCs (SCD Tg mice [4]): decreases
- congestion, vascular damage and necrosis in multiple tissues (histology) (SCD Tg mice [5]): reduced
- fold increase of half-life of RBCs (SCD Tg mice [6]; chronic treatment vs untreated): 2.75 fold
- half-life of RBCs (SCD Tg mice [6]; chronic treatment, untreated 2 days): 5.5 days

Source: patent US20120134979A1, “METHODS AND COMPOSITIONS FOR THE TREATMENT OF SICKLE CELL DISEASE” (priority 2010, published 2012)
